The record followed here is US6872805B2 (Bristol-Myers Squibb Company, priority 2000, dated 2005).

Bounds are passed on as bounds.

For the assay, the target named is HCV NS3/4A protease complex (Hepatitis C virus genotype 1a, UniProt P27958, C1454S/C1711G). In words: Recombinant HCV NS3/4A protease complex FRET peptide assay (strain not stated). Format: biochemical.
HCV NS3/4A protease complex, sequence (P27958 1027-1711, stated change not applied): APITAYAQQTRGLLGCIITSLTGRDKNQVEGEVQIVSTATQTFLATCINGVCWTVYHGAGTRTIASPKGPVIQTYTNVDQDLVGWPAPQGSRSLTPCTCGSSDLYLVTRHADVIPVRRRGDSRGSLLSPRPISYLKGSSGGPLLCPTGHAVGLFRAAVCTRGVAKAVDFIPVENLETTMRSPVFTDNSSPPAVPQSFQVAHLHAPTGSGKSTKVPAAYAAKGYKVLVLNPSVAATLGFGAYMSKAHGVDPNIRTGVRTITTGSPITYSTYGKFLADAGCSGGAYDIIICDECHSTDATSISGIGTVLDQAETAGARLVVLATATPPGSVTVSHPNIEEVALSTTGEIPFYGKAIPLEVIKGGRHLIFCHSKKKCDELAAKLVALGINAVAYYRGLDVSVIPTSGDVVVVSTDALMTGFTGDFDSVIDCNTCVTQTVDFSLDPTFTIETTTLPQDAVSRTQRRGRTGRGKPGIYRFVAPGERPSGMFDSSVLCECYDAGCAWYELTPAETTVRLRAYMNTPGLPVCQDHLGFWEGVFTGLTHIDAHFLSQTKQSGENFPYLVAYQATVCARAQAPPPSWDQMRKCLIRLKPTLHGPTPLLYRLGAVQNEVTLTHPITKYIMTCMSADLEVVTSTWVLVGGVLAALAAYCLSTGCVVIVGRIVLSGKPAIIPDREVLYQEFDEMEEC
HCV NS3/4A protease complex, sequence (P27958 1027-1711, stated change not applied): as above

The IC50 is the midpoint of a concentration-inhibition curve. As to `C=CC1C[C@]1(NC(=O)[C@@H]1C[C@@H](Oc2cc(-c3ccccc3)nc3cc(OC)ccc23)CN1C(=O)C(NC(=O)OC(C)(C)C)C(C)(C)C)C(=O)NS(=O)(=O)c1ccc(NC(C)=O)cc1` (some centres unmarked) [Compound 58], the IC50 was under 50 nM (IC50, NS3/4A protease enzyme assay, strain not stated, activity ranges) and 21 nM (IC50, strain not stated).
